# Patent US7604990B2, “Methods of regulating differentiation in stem cells” (ES Cell International Pte Ltd., priority 2002, dated 2009)
# Key:
# hES cells [1] = assay: Direct observation of hES colonies in serum-depleted medium (Example 4); type: cell-based, human
# Description: (A) hES cells grown with feeder, before the depletion in serum. (B) hES cells grown without serum after 8 days (B, C) and 12 days (D, E), in absence (B, D) or presence of S1P (C, E, 10 μM).
# For direct observation, hES-3 cells were coated into 12-well plates (3 colonies per well), with or without mouse embryonic feeders (MEFs). The day following the plating, cells were incubated with the different agents in serum free medium containing insulin, transferring and selenium. Media was changed the 2nd day and then every 2 days.
# [2] = tested on: ERKs (Erk1 and Erk2) in hES cells; assay: ERK phosphorylation Western blot in hES cells (Example 5); type: cell-based, human
# Description: Western blots experiments were performed using protein lysate from hES cells. (A) Cells were pre-treated or not with U0126 (30 μM, 1 hr) and incubated for 5 min in the absence (C, control) or presence of S1P (10 μM). (B) Cells were incubated for different time periods in the absence or presence of S1P (10 μM). (C) Cells were incubated for 5 min with various concentrations of S1P. The phosphorylation of Erk1 and Erk2 (P-Erk1 and P-Erk2) was assessed by immunoblotting with a polyclonal anti-active MAP kinase as described in Materials and Methods. After a stripping procedure, the same blots reprobed with a monoclonal anti-MAP kinase, allowed the detection of Erk1 and Erk2.
# For immunoblot analysis, cells were transferred into 24 well plates (8 colonies per well) without MEFs, and 24 hr later, were grown in the absence of serum for 18 hrs.
# In some experiments, cells were pre-treated for 1 hr with U0126 (30 μM) or for 18 hrs with PTX (100 μg/ml).
# hES3 cells were lysed following removal of the supernatants by addition of a reducing loading buffer (2% SDS, 62.5 mM Tris pH 6.8, 0.1 M DTT, 0.01% bromophenol blue) containing 1 mM sodium orthovanadate. Samples were boiled for 10 min and centrifuged at 13000 g for 15 min, and protein lysates (approx. 80 μg) were separated by SDS-polyacrylamide gel electrophoresis (10% polyacrylamide, w/v). Proteins were transferred to nitrocellulose (Hybond-ECL, Amersham) and immunoblotting was carried out with rabbit polyclonal anti-active mitogen-activated protein (MAPK) antibodies raised against a dually phosphorylated MAPK peptide (Promega, Madison, Wis., USA). Peroxidase-coupled secondary antibody (Dako) was detected by exposure of autoradiographic films in the presence of a chemiluminescent detection reagent (ECL, Amersham). Stripping of antibodies was achieved by incubating the membrane during 30 min at 50° C. in a buffer containing 100 mM mercaptoethanol, 2% SDS, 62.5 mM Tris-HCl pH 6.7. The membrane was then reprobing with rabbit polyclonal anti-ERK1/2 antibodies (Promega), and then with peroxidase-coupled secondary antibodies (Dako).
# hES cells [3] = assay: GCTM-2/PCNA immunostaining cell count, dissociated hES cells without MEF and serum (Example 1); type: cell-based, human; conditions: 4 days, no MEF, no serum
# From the text: (A) Quantification of the number of GCTM2+ cells. (B) Quantification of the number of PCNA+/GCTM2+ cells.
# In some experiments, hES-3 cells plated onto 8-well chamber slides, with or without MEF, were fixed in ethanol or paraformaldehyde (for PDGFR) the day after plating. In others, hES-3 cells were mechanically dissociated, in order to obtain a monolayer culture and then plated onto 8-well chamber slides without MEF and were fixed in ethanol 4 days after the first treatment. Immunostaining was performed using the following antibodies: anti human PDGFR-α or PDGFR-β (R&D Systems Inc.), GCTM-2, and/or PCNA (Chemicon, Boronia, VIC, Australia), TRA-1-60, Oct-4. Nuclei were evidenced by Hoechst-33342. Slides were mounted and observed by fluorescent microscopy with a Leica microscope at ×10, ×20 and ×40. Specificity was verified by the absence of any staining in the negative controls. In some experiments, cells were counted to determine the ratio of GCTM-2 positive (GCTM2+), PCNA positive (PCNA+) and GCTM2+/PCNA+ cells within the global population.
# hES cells [4] = assay: GCTM-2 quantification by alkaline phosphatase activity, hES cells on MEF, serum-free (Example 1); type: cell-based, human; conditions: 8 days serum-free on MEF; S1P 10 μM, PDGF 20 ng/ml; n=7
# Description: (A) hES cells grown with MEF, before the depletion of serum from the medium. (B, C, D, E) hES cells grown without serum after 8 days, in the absence (B) or in the presence of S1P (10 μM) (C), PDGF (20 ng/ml) (D), S1P (10 μM) plus PDGF (20 ng/ml) (E). (F) hES cells grown without serum, in the presence or in the absence (control) of S1P (10 μM), PDGF (20 ng/ml), S1P (10 μM) plus PDGF (20 ng/ml). In A-E, data are representative of at least 3 independent experiments. In F, data expressed as percentages of alkaline phosphatase activity in absence of serum for eight days (% of control), are the means±SEM of at least 2 independent experiments, each run in triplicate.
# hES-3 cells plated with MEF, were fixed in ethanol and immunostained with GCTM-2 and then with an alkaline phosphatase-coupled secondary antibody (Dako). The activity of alkaline phosphatase was detected by adding a solution of 4-nitrophenyl phosphate (Roche, Mannheim, Germany), followed by reading the optical density (OD) at 405 nm. In order to validate the technique as a relevant indicator of the proportion of GCTM-2 positive cells, standard curves were done with the teratocarcinoma cell line GCT27C4, known to express GCTM-2.
# [5] = tested on: sphingosine kinase (SPK) in hES cells; assay: Sphingosine kinase activity in hES cells after PDGF; type: cell-based, human; conditions: PDGF 20 ng/ml
# Description: hES-3 cells plated without MEF for 24 hr and depleted of serum for a further 18 hr were incubated in the presence of PDGF (20 ng/ml) for various time periods and were harvested and lysed by sonication (2 W for 30 s at 4° C.) in lysis buffer containing 50 mM Tris/HCl (pH 7.4), 10% glycerol, 0.05% Triton X-100, 150 mM NaCl, 1 mM dithiothreitol, 2 mM Na3VO4, 10 mM NaF, 1 mM EDTA and protease inhibitors (Complete™, Roche, Mannheim, Germany). SPK activity was determined using D-erythro-sphingosine and […] as substrates, as previously described^19. Protein concentrations in cell homogenates were determined with Coomassie Brilliant Blue reagent (Bio-Rad, Regent Park, NSW, Australia) using bovine serum albumin as standard.
# SPK in MEF = assay: Sphingosine kinase activity in MEF after PDGF; type: cell-based, mouse; conditions: PDGF 20 ng/ml
Molecule,"growth/differentiation of hES colonies on MEFs (hES cells [1]; S1P 10 μM 8 days, LPA up to 50 μM 12 days)","effect on cell differentiation, hES cells grown without MEFs (hES cells [1]; without MEFs, n=3)","concentration dependence of ERKs stimulation ([2]; 5 min, various concentrations of S1P)",duration of ERKs stimulation ([2]; S1P 10 μM),"phosphorylation of ERKs ([2]; hES cells, 5 min, S1P 10 μM)",proliferating rate of hES cells (PCNA+) versus control (hES cells [3]),more GCTM2+ than the control cells (alkaline phosphatase activity) (hES cells [4]),duration of SPK activity enhancement [5],"SPK activity ([5]; 30 min, value printed in brackets after 'basal values', n=3)",SPK activity relative to basal values ([5]; after 30 min of incubation),activation of SPK in MEF (SPK in MEF),"cells GCTM2+ (hES cells [3]; mechanically dissociated, S1P 10 μM, PDGF 10 ng/ml)"
"CCCCCCCCCCCCC/C=C/[C@@H](O)[C@@H](N)COP(=O)(O)O [S1P, Sphingosine-1-phosphate]",more compact and less differentiated,inhibitory effect,concentration dependant manner,at least 60 min,stimulated the phosphorylation of ERKs,no statistically significant difference,–,–,–,–,–,–
PDGF,–,–,–,–,–,no statistically significant difference,16.6±7.0%,at least 60 min,75.3 ± 3.92 nmol/min/mg,1.6 fold,did not induce a significant statistical activation of SPK,53.7±13.2%
